Experimental data taken from a melting point compilation (Tetko et al.).

Compound | melting point
O=C(O)c1ccc(OCc2ccncc2)cc1 | 278 to 280 °C
Nc1ccc(Oc2ccncc2)cc1 | 160 to 162 °C
O=C(O)c1cnc(NC2CC2)s1 | 217 to 219 °C
NNc1ncccn1 | 90 to 92 °C
COC(=O)c1cc(C)cc([N+](=O)[O-])c1 | 80 to 82 °C
CS(=O)(=O)NCCBr | 44 to 46 °C
CC(=O)c1ccc(CNC(=O)OC(C)(C)C)nc1C | 72 to 74 °C
COc1ccc(S(=O)(=O)Cl)c(Cl)c1Cl | 92 to 94 °C
Cc1ccc(-c2nn(CCC#N)cc2C(=O)O)cc1C | 174 to 176 °C
Cc1cc2ncn(Cc3ccc(Cl)cc3)c2cc1C | 143 to 145 °C
CC(O)c1c(Cl)nc2sccn12 (stereo not given) | 107 to 109 °C
Cn1cc(N2CCNCC2)cn1 | 68 to 70 °C
ClCc1csc(-c2ccc3c(c2)OCO3)n1 | 106 to 108 °C
N#Cc1c(N)cc(N)nc1S | 349 to 351 °C
Cc1ccc2ncc(C#N)n2c1 | 126 to 128 °C
O=C(O)CCS(=O)(=O)C(F)(F)F | 104 to 106 °C
O=C(O)c1cc2c(s1)CCC2 | 199 to 201 °C
COc1cc(S(N)(=O)=O)c(OC)cc1N | 203 to 205 °C
O=C1COc2c(Br)cc(Cl)cc21 | 139 to 141 °C
Nc1nc(CN2CCN(c3nccs3)CC2)cs1 | 169 to 171 °C
Cc1nn(C)c2ncc(CCl)cc12 | 171 to 173 °C

Compound | melting point
C#CCOc1ccc(C=O)cc1 | 75 to 77 °C
Sc1ccc2c(c1)OCCCO2 | 41 to 43 °C
COc1ccc2c(c1)c(C(=O)O)c(C)n2C1CCCC1 | 174 to 176 °C
O=c1[nH]cnc2nc(N3CCOCC3)sc12 | 397 to 399 °C
CC1(C#N)CCN(C(=O)C(F)(F)F)CC1 | 41 to 43 °C
O=C(C(=O)N1CCOCC1)N1CCNCC1 | 127 to 129 °C
Cc1nn(-c2ccc(F)cc2F)c(C)c1C=O | 129 to 131 °C
Nc1ccc(C(=O)N2CCCCCC2)cc1 | 133 to 135 °C
O=S1(=O)CCCN1c1ccc(Br)cc1 | 108 to 110 °C
CC1CCCCC1NC(=O)NC(=O)CCl (stereo not given) | 126 to 128 °C
CCCc1noc2nc(C3CC3)cc(C(=O)O)c12 | 142 to 144 °C
C=CCC(NC(C)=O)C(=O)O (stereo not given) | 114 to 116 °C
Nc1ccc2c(c1)OC1(CCCCC1)O2 | 65 to 67 °C
O=C(O)C1CCCN1C(=O)c1cc(Cl)cc(Cl)c1 (stereo not given) | 162 to 164 °C
NS(=O)(=O)Cc1ccc(Cl)cc1Br | 169 to 171 °C
O=C1NCCc2c(Br)cccc21 | 109 to 111 °C
COC(=O)c1noc(C(=O)OC)c1O | 157 to 161 °C
N#Cc1ccc(Br)cc1[N+](=O)[O-] | 91 to 93 °C
Cc1n[nH]c(C2CNCCO2)n1 (stereo not given) | 104 to 106 °C
Nc1ccc(S(=O)(=O)Nc2cccc(C(F)(F)F)c2)cc1N | 143 to 147 °C
Cn1c(=O)n(Cc2ccc(Br)cc2)c(=O)c2ccc(C(F)(F)F)nc21 | 103 to 105 °C

Compound | melting point
Cc1nc(Cl)c(C)c(NN)n1 | 141 to 143 °C
CN1CCN(Cc2ccc(N)cc2)CC1 | 96 to 98 °C
O=C(O)C1CCC(n2cccc2)CC1 (stereo not given) | 143 to 145 °C
Clc1ccc(OC2CCCNC2)nc1 (stereo not given) | 64 to 66 °C
NS(=O)(=O)c1ccc2c(c1)COC2 | 146 to 148 °C
COc1ccc(S(=O)(=O)Cl)cc1[N+](=O)[O-] | 58 to 60 °C
NC(=O)OCC(F)(F)F | 42 to 44 °C
OC(CN1CCCC1)C(F)(F)F (stereo not given) | 78 to 80 °C
O=C1C=CC(=O)N1C1CC1 | 54 to 56 °C
CN1CCN(C(N)=S)CC1 | 179 to 181 °C
N#Cc1cc(S(=O)(=O)Cl)ccc1Cl | 49 to 51 °C
N#Cc1ccc(F)c(Cl)c1Cl | 65 to 67 °C
Nc1ccc(N2CCNCC2)cn1 | 162 to 164 °C
Cc1ccc(OC2CCNCC2)cc1 | 44 to 46 °C
O=[N+]([O-])c1ccc(F)cc1NC1CC1 | 69 to 71 °C
CSc1cc(Br)ccc1C=O | 81 to 83 °C
COc1ccc(Cc2nc3sc4c(c3c(=O)[nH]2)CCC4)cc1OC | 237 to 239 °C
O=C(O)c1ccc(N2CCCC2=O)cc1 | 250 to 252 °C
COc1ccc(C(=O)O)cc1S(=O)(=O)Cc1cc(C)no1 | 217 to 219 °C
COc1ccc(N)cc1S(=O)(=O)N1CCOCC1 | 131 to 133 °C
O=c1[nH]c2c(c(=O)[nH]1)CCCC2 | 304 to 306 °C

Compound | melting point
COC(=O)c1cc(F)cc(OC)c1N | 66 to 68 °C
CC1CNc2c(cccc2S(N)(=O)=O)C1 (stereo not given) | 162 to 164 °C
O=C(Nc1nccs1)C1CCCNC1 (stereo not given) | 178 to 180 °C
COc1cccc(C(N)=S)c1OC | 146 to 148 °C
Nc1cc(-c2c(F)cc(F)cc2F)no1 | 131 to 133 °C
Nc1nc(-c2c(F)cccc2F)cs1 | 179 to 181 °C
Cc1oc(C(=O)O)cc1C(=O)CCl | 206 to 208 °C
Cc1nnc(-c2ccc(N)cc2)o1 | 195 to 197 °C
Cc1ccnc(-c2ccc(N)cc2)n1 | 118 to 120 °C
Nc1nccc(C(F)(F)F)n1 | 174 to 178 °C
CCc1cc(N)nc(C)n1 | 149 to 151 °C
NN1CCCC1=O | 47 to 49 °C
CCn1nc(C)c(C(=O)O)c1C(F)(F)Cl | 111 to 113 °C
CC(C)C(Br)C(=O)N1CCCCC1 (stereo not given) | 61 to 63 °C
N#Cc1cc(Cl)ccc1N=C=O | 71 to 75 °C
O=C(O)CC1CSCCS1 (stereo not given) | 77 to 79 °C
Cc1c(Cl)cccc1-n1c(S)nnc1-c1ccncc1 | 322 to 324 °C
COc1cc(Br)cc(OC)c1O | 99 to 101 °C

Further lines, results first:

melting point | Compound
194 to 196 °C | Cc1ccc(-n2cc(C(=O)O)c(-c3ccccc3)n2)cc1
168 to 170 °C | Cc1cc(NN)nc2c(C)cccc12
224 to 226 °C | O=C(O)CSc1nnc(-c2ccccc2)n1-c1ccc(Cl)cc1
59 to 61 °C | NCC(O)CN1CCc2ccccc2C1 (stereo not given)
246 to 248 °C | O=C(O)c1cnn(-c2ccc(Cl)cc2Cl)c1
270 to 272 °C | O=c1[nH]nc(-c2ccc(F)cc2)c2ccccc12
140 to 142 °C | CN(C)c1ccc(NC(=O)NN)cc1
75 to 77 °C | Cc1cccc(CC(N)=S)c1
206 to 208 °C | CNC(=CC(=O)c1ccccc1C)NC
180 to 182 °C | CC(C)(C)c1ccc(C(=O)N2CSCC2C(=O)O)cc1 (stereo not given)
122 to 124 °C | N#Cc1ccccc1CN1C(=O)CCC1=O
161 to 163 °C | COC(=O)c1cc(C(=O)O)n(-c2ccccc2)n1
129 to 131 °C | CCS(=O)(=O)c1ccc(F)c(C(=O)O)c1
89 to 91 °C | CC(Cl)C(=O)NC(C)c1ccccc1 (stereo not given)
118 to 120 °C | CC(Cl)C(=O)N1c2ccccc2Sc2ccccc21 (stereo not given)
106 to 108 °C | Nc1c(Cl)cnn1C1CCN(Cc2ccccc2)C1 (stereo not given)
229 to 231 °C | NC(=O)Cc1nc2ccccc2[nH]1
111 to 113 °C | CC(N)CCc1ccc(O)cc1 (stereo not given)
138 to 140 °C | CCC(C)(C#N)NC(=O)c1ccccc1 (stereo not given)
91 to 93 °C | O=C(O)CCCc1ccc2ccccc2c1
101 to 103 °C | OC1CCCCc2ccccc21 (stereo not given)
182 to 184 °C | O=C(O)c1ccccc1Cc1nc2ccccc2s1

melting point | Compound
71 to 73 °C | Fc1ccc(NCc2ccccn2)cc1
189 to 191 °C | O=C(O)[C@@H]1CC(O)CN1C(=O)OCC1c2ccccc2-c2ccccc21 (stereo not given in full)
169 to 171 °C | Cc1nc(C(C)C)sc1C(=O)O
99 to 101 °C | Cc1ccccc1-c1nnc(CCl)o1
90 to 92 °C | N#Cc1cnn(-c2ccccc2)n1
163 to 165 °C | O=C(O)c1ccc(F)c(S)c1
229 to 231 °C | O=C(O)c1ccc(N2C(=O)C=CC2=O)cc1
86 to 88 °C | O=[N+]([O-])c1ccc(Oc2ccccc2Br)c(Cl)c1
87 to 89 °C | CC(C)c1cc(C(=O)O)nn1C
128 to 130 °C | CNC(=O)COc1cccc(CC(=O)O)c1
234 to 236 °C | O=C(NC(Cc1ccc(O)cc1)C(=O)O)c1cnccn1 (stereo not given)
195 to 197 °C | N#CCC(=O)Nc1ccc(C(=O)O)cc1
50 to 52 °C | Cc1cc(S(=O)(=O)Cl)ccc1OC(C)C
119 to 121 °C | O=C1CNc2ccccc2N1
136 to 138 °C | O=C(NCCO)c1ccncc1
118 to 120 °C | CCOc1cccc(C(N)=S)c1
227 to 229 °C | O=c1[nH]c2ccc(NCc3ccccc3Cl)cc2[nH]1
209 to 211 °C | C1=CCC(c2nc3ccccc3[nH]2)CC1 (stereo not given)
106 to 108 °C | CC(C)n1cccc1C(=O)O
53 to 55 °C | COC(=O)c1c(N)cccc1F
139 to 141 °C | Nc1cccc(-c2cn(Cc3ccccc3)nn2)c1
96 to 98 °C | Cn1ccnc1CC(=O)c1ccccc1

melting point | Compound
175 to 177 °C | O=C(OCc1ccccc1)N1CCc2n[nH]c(=O)cc2C1
235 to 237 °C | CC(C)C(NC(=O)C=Cc1ccc(C(N)=O)cc1)C(=O)O (stereo not given)
52 to 54 °C | COc1ccc(C(=O)CC(C)=O)cc1
195 to 197 °C | Cc1cc(C(=O)O)c2c(C)nn(-c3ccccc3)c2n1
157 to 159 °C | CC(C)(C)c1ccc2cc(C(=O)O)[nH]c2c1
175 to 177 °C | CCN(c1ccccc1)S(=O)(=O)c1cccc(C(=O)O)c1
87 to 89 °C | O=C(O)C(=O)c1ccc(Cl)cc1
124 to 126 °C | CC(=O)c1cc(S(N)(=O)=O)ccc1C
143 to 145 °C | CC(C)(C)c1ccc(CC(C#N)C(N)=O)cc1 (stereo not given)
127 to 129 °C | COc1ccccc1NC(=O)c1ccccc1NC(=O)CCC(=O)O
70 to 72 °C | OCc1cnn(-c2ccccc2)n1
104 to 106 °C | O=C(CCl)NCCc1cccc2ccccc12
217 to 219 °C | O=C(O)CN1Cc2ccccc2C1=O
70 to 72 °C | COC(=O)c1oc2ccccc2c1C
134 to 136 °C | Cc1nc2scc(-c3ccccc3)c2c(=O)n1N
243 to 245 °C | CC(C)(C)Nc1ccc(C(=O)O)cc1S(=O)(=O)NC(C)(C)C
85 to 87 °C | O=C(O)C1COc2ccc(Cl)cc2C1 (stereo not given)
114 to 116 °C | Cc1cc(O)nc(-c2ccccn2)n1
252 to 254 °C | O=c1[nH]c(=O)n(Cc2ccccc2)c2ncn(C3CCCC3)c12
110 to 112 °C | Cc1ccccc1OCc1nnc(S)[nH]1
